Measurements published in ChEMBL document CHEMBL3621118, “Virtual screening for novel Atg5Atg16 complex inhibitors for autophagy modulation” (2015).
Active and inactive are the calls of the source. The calls are words filed in the database; no cut-off is given here.

How the values were obtained:
[1] = test system: A2780; test: Inhibition of PBS-induced autophagy in human A2780 cells assessed as decrease in LC3-2 level at 50 to 100 uM preincubated for 1 hr followed by PBS induction measured after 3 hrs by Western blot analysis; type: functional, cell-based
[2] = test system: A2780; test: Inhibition of PBS-induced autophagy in human A2780 cells assessed as decrease in depletion of p62 level at 50 to 100 uM preincubated for 1 hr followed by PBS induction measured after 3 hrs by Western blot analysis; type: functional, cell-based
[3] = test system: MCF7; test: Inhibition of chloroquine-induced autophagy in human MCF7 cells assessed as suppression of autophagosome formation at 25 uM after 5 hrs by MDC staining-based fluorescence microscopic analysis; type: functional, cell-based
[4] = test system: A2780; test: Inhibition of PBS-induced autophagy in human A2780 cells assessed as decrease in LC3-2 level preincubated for 1 hr followed by PBS induction measured after 3 hrs by Western blot analysis; type: functional, cell-based
[5] = test system: A2780; test: Inhibition of PBS-induced autophagy in human A2780 cells assessed as decrease in depletion of p62 level preincubated for 1 hr followed by PBS induction measured after 3 hrs by Western blot analysis; type: functional, cell-based
[6] = Cytotoxicity against human NCI60 cells assessed as cell growth at 10 uM after 24 hrs by SRB assay relative to control; type: functional; details: NCI60, 24 h, read-out: Activity

O=C(NCCCCc1ccccc1)c1cccc(Br)c1
inhibition [1]: inactive
inhibition [2]: inactive

O=C(NCCCCc1ccccc1)c1ccc(Br)cc1
inhibition [1]: inactive
inhibition [2]: inactive

O=C(NCCCCc1ccccc1)c1ccccc1Br
inhibition [1]: inactive
inhibition [2]: inactive

COc1ccc(NC(=O)C(=O)NCCN2CCN(C(=O)c3ccc(Cl)cc3Cl)CC2)cc1
inhibition [1]: inactive
inhibition [2]: inactive

Cc1ccc(OCC(=O)Nc2ccc(N3CCN(C(=O)c4ccco4)CC3)cc2)cc1
inhibition [1]: Active
inhibition [2]: Active

O=C(NCCCOc1ccccc1)c1cccc2ccccc12
inhibition [1]: Active
inhibition [2]: Active
inhibition [3]: Active

O=C(NC1CCN(Cc2ccccc2)CC1)c1ccc(Cl)cc1Cl
inhibition [1]: inactive
inhibition [2]: inactive

O=C(NCCCCc1ccccc1)c1ccc(Cl)cc1Cl
inhibition [4]: Dose-dependent effect
inhibition [5]: Dose-dependent effect
inhibition [3]: Active

Cc1cccc(CS(=O)(=O)NCc2ccc(N3CCCC3)cc2)c1
inhibition [1]: Active
inhibition [2]: Active
inhibition [3]: Active
growth at 10 µM [6]: 90.1%

O=C(CNC(=O)c1ccc(Cl)cc1Cl)OCC(=O)c1ccc(Br)cc1
inhibition [1]: inactive
inhibition [2]: inactive

O=C(NCCCc1ccccc1)c1ccccc1
inhibition [1]: inactive
inhibition [2]: inactive

O=C(NCCCCc1ccccc1)c1ccccc1F
inhibition [1]: Active
inhibition [2]: Active
